Values of other authors in paper PMC7211198, “Phase 1b study of a small molecule antagonist of human chemokine (C-C motif) receptor 2 (PF-04136309) in combination with nab-paclitaxel/gemcitabine in first-line treatment of metastatic pancreatic ductal adenocarcinoma” (Investigational New Drugs, 2019).
Like-named read-outs stand apart in the source and are kept apart here.

System: advanced pancreatic cancer
Conditions: cited from earlier work

For `Nc1ccn([C@@H]2O[C@H](CO)[C@@H](O)C2(F)F)c(=O)n1` [gemcitabine], the “Observed rate of pneumonitis” value (gemcitabine combined with nab-paclitaxel) is given as “up to 4%” and the “Observed rate of pneumonitis” value (patients treated with gemcitabine) is given as “approximately 1%”.
